Measured values: patent US9926282B2, “Phthalazinones and isoquinolinones as rock inhibitors” (BRISTOL-MYERS SQUIBB COMPANY, priority 2013, dated 2018)

Legend:
ROCK1 = ROCK1 (Homo sapiens (Human), UniProt Q13464); assay: ROCK assay (LABCHIP peptide phosphorylation), ROCK1; type: biochemical; details: 5 μM ATP, 1.5 μM peptide substrate; read-out: ROCK1 IC50
ROCK2 = ROCK2 (Homo sapiens (Human), UniProt O75116); assay: ROCK assay (LABCHIP peptide phosphorylation), ROCK2; type: biochemical; details: 5 μM ATP, 1.5 μM peptide substrate
Sequence of ROCK2 (O75116 whole entry, species assumed): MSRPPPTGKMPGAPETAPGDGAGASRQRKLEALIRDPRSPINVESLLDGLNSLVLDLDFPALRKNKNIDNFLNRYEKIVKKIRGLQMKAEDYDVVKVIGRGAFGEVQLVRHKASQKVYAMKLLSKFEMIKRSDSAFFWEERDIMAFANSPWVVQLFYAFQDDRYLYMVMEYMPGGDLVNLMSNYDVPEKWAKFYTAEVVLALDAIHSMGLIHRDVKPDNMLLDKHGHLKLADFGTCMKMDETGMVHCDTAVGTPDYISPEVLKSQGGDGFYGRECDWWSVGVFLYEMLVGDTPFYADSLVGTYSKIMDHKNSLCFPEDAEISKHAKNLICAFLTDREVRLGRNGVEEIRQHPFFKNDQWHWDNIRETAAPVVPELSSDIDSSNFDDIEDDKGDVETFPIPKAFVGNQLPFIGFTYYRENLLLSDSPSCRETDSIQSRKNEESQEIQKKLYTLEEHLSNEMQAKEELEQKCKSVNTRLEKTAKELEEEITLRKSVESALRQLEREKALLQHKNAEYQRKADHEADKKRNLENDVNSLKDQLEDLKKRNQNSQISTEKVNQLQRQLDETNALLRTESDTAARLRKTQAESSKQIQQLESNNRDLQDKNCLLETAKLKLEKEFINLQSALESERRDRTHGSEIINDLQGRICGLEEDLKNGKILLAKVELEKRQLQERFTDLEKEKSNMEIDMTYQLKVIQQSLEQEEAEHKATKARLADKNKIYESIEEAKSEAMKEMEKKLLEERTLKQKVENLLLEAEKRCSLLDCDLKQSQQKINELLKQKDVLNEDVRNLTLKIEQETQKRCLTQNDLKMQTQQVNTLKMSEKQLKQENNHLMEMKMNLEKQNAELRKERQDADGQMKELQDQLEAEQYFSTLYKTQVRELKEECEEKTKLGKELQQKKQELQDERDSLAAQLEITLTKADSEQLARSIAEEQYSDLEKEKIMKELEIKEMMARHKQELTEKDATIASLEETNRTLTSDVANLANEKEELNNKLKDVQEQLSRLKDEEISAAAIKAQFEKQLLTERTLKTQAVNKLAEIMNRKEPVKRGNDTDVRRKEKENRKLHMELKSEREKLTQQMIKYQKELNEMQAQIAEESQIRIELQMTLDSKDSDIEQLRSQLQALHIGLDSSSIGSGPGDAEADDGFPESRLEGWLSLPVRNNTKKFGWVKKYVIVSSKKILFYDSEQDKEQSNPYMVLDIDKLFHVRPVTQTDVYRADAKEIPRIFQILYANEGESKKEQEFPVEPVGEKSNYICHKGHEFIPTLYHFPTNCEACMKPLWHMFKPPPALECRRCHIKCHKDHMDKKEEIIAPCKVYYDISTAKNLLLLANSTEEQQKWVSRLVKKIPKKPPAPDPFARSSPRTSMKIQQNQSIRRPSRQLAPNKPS

Sequence of ROCK1 (Q13464 whole entry, species assumed): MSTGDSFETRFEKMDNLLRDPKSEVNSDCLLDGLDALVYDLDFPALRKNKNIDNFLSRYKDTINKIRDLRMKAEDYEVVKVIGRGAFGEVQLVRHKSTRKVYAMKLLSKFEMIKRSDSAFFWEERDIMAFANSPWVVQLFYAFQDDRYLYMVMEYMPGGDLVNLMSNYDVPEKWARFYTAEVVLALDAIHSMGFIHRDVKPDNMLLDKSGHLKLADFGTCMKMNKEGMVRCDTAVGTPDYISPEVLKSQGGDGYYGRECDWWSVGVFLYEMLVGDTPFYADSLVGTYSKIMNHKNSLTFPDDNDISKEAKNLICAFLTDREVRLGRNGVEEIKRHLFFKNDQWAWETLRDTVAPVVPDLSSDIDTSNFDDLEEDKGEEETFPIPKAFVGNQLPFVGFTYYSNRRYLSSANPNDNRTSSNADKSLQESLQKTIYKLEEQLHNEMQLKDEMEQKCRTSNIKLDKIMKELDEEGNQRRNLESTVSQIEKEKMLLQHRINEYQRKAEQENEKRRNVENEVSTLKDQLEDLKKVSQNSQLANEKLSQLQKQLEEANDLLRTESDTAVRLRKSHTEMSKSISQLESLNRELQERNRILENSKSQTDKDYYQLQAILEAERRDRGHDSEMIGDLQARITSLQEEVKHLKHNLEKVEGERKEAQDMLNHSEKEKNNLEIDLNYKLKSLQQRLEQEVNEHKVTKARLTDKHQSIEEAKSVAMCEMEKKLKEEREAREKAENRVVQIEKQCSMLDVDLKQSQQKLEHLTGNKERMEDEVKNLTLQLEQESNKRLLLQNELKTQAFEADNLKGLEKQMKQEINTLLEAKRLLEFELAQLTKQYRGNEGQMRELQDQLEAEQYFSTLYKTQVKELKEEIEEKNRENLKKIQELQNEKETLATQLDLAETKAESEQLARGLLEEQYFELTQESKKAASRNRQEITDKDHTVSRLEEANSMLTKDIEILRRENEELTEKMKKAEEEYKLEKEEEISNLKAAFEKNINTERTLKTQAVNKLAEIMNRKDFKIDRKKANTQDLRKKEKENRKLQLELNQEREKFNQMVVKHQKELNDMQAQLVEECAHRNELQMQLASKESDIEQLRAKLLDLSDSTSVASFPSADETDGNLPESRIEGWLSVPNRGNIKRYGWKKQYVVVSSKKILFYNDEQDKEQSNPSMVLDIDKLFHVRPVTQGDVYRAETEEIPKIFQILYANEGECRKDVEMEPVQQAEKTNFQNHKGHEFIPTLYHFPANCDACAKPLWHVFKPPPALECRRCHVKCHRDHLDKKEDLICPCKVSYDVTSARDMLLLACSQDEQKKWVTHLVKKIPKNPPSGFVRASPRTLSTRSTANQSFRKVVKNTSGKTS

Q: How did the IC50 (ROCK1) turn out when `CN1CC[C@H](Oc2ccc3c(c2)N(C(=O)Cc2ccc(-c4n[nH]c(=O)c5ccccc45)cc2)CC3)C1` [Example 281, 4-{4-[2-(6-{[(3S)-1-methylpyrrolidin-3-yl]oxy}-2,3-dihydro-1H-indol-1-yl)-2-oxoethyl]phenyl}-1,2-dihydrophthalazin-1-one] was run?
A: Its IC50 is 101 to 1000 nM.

Q: And the IC50 (ROCK2)?
A: Its IC50 is 0.1 to 100 nM.

Q: What does the source list for `O=C(Nc1ccc(-c2n[nH]c(=O)c3ccccc23)cc1)c1csc(-c2ccc(C(F)(F)F)cc2)n1` [Example 48, N-[4-(4-oxo-3,4-dihydrophthalazin-1-yl)phenyl]-2-[4-(trifluoromethyl)phenyl]-1,3-thiazole-4-carboxamide]?
A: IC50 (ROCK1): 101 to 1000 nM; IC50 (ROCK2): 0.1 to 100 nM

Q: `O=C(Nc1ccc(-c2n[nH]c(=O)c3ccccc23)c(CO)c1)c1nn(CC2CCOC2)c2ccc(F)cc12` (stereo not drawn) [Example 366, 5-Fluoro-N-(3-(hydroxymethyl)-4-(4-oxo-3,4-dihydrophthalazin-1-yl)phenyl)-1-((tetrahydrofuran-3-yl)methyl)-1H-indazole-3-carboxamide] was tested. Which IC50 (ROCK1) did it give?
A: The IC50 was 101 to 1000 nM.

Q: And the IC50 (ROCK2)?
A: Its IC50 is 0.1 to 100 nM.

Q: `Cc1cc(NC(=O)c2nn(CC(C)(C)O)c3ccccc23)ccc1-c1n[nH]c(=O)c2ccccc12` [Example 301, 1-(2-hydroxy-2-methylpropyl)-N-[3-methyl-4-(4-oxo-3,4-dihydrophthalazin-1-yl)phenyl]-1H-indazole-3-carboxamide] was tested. Which IC50 (ROCK1) did it give?
A: The IC50 was 0.1 to 100 nM.

Q: What about the IC50 (ROCK2) of the same compound?
A: Its IC50 is 0.1 to 100 nM.

Q: Which results are given for `O=C(Cn1nc(C(=O)Nc2ccc(-c3n[nH]c(=O)c4ccccc34)cc2)c2ccccc21)NCC1(O)CCC1` [Example 335, 1-(2-(((1-Hydroxycyclobutyl)methyl)amino)-2-oxoethyl)-N-(4-(4-oxo-3,4-dihydrophthalazin-1-yl)phenyl)-1H-indazole-3-carboxamide]?
A: IC50 (ROCK1): 0.1 to 100 nM; IC50 (ROCK2): 0.1 to 100 nM

Q: For `Cc1cc(NC(=O)c2cnc3ccccn23)ccc1-c1n[nH]c(=O)c2ccccc12` [Example 312, N-[3-methyl-4-(4-oxo-3,4-dihydrophthalazin-1-yl)phenyl]imidazo [1,2-a]pyridine-3-carboxamide], which IC50 (ROCK1) is on record?
A: Its IC50 is 101 to 1000 nM.

Q: And the IC50 (ROCK2)?
A: The IC50 was 0.1 to 100 nM.

Q: Which results are given for `COc1ccc2c(c1)N(C(=O)Nc1ccc(-c3c[nH]c(=O)c4ccc(OC)cc34)cc1)CC2` [Example 268, 6-Methoxy-N-(4-(6-methoxy-1-oxo-1,2-dihydroisoquinolin-4-yl)phenyl)indoline-1-carboxamide]?
A: IC50 (ROCK1): 0.1 to 100 nM; IC50 (ROCK2): 0.1 to 100 nM

Q: Which results are given for `O=C(Nc1ccc(-c2n[nH]c(=O)c3ccccc23)cc1)c1cnn2ccc(OCCN3CCCC3)cc12` [Example 183, N-[4-(4-oxo-3,4-dihydrophthalazin-1-yl)phenyl]-5-[2-(pyrrolidin-1-yl)ethoxy]pyrazolo[1,5-a]pyridine-3-carboxamide]?
A: IC50 (ROCK1): 0.1 to 100 nM; IC50 (ROCK2): 0.1 to 100 nM

Q: Which IC50 (ROCK1) does the source give for `Cc1nc(N2CCCc3ccccc32)sc1C(=O)Nc1ccc(-c2n[nH]c(=O)c3ccccc23)cc1` [Example 241, 4-methyl-N-[4-(4-oxo-3,4-dihydrophthalazin-1-yl)phenyl]-2-(1,2,3,4-tetrahydroquinolin-1-yl)-1,3-thiazole-5-carboxamide] here?
A: The IC50 was 0.1 to 100 nM.

Q: And the IC50 (ROCK2)?
A: The IC50 was 0.1 to 100 nM.

Q: For `O=C(Nc1ccc(-c2n[nH]c(=O)c3ccccc23)cc1)c1nn(CC2CCOCC2)c2ccccc12` [Example 150, 1-(oxan-4-ylmethyl)-N-[4-(4-oxo-3,4-dihydrophthalazin-1-yl)phenyl]-1H-indazole-3-carboxamide], which IC50 (ROCK1) is on record?
A: Its IC50 is 0.1 to 100 nM.

Q: And the IC50 (ROCK2)?
A: The IC50 was 0.1 to 100 nM.

Q: Which IC50 (ROCK1) does the source give for `Cc1onc(NC(=O)Cc2ccc(-c3n[nH]c(=O)c4ccccc34)cc2)c1C` [Example 280, N-(dimethyl-1,2-oxazol-3-yl)-2-[4-(4-oxo-3,4-dihydrophthalazin-1-yl)phenyl]acetamide] here?
A: The IC50 was 101 to 1000 nM.

Q: What about the IC50 (ROCK2) of the same compound?
A: Its IC50 is 0.1 to 100 nM.

Q: Which IC50 (ROCK1) does the source give for `O=C(COc1ccc2c(c1)N(C(=O)Cc1ccc(-c3n[nH]c(=O)c4ccccc34)cc1)CC2)N1CCOCC1` [Example 297, 4-(4-(2-(6-(2-Morpholino-2-oxoethoxy)indolin-1-yl)-2-oxoethyl)phenyl)phthalazin-1(2H)-one] here?
A: The IC50 was 0.1 to 100 nM.

Q: And the IC50 (ROCK2)?
A: Its IC50 is 0.1 to 100 nM.

Q: What does the source list for `O=C(Nc1ccc(-c2n[nH]c(=O)c3ccccc23)cc1)N1CC2(CCNCC2)c2ccccc21` [Example 371, N-(4-(4-Oxo-3,4-dihydrophthalazin-1-yl)phenyl)spiro[indoline-3,4′-piperidine]-1-carboxamide]?
A: IC50 (ROCK1): 101 to 1000 nM; IC50 (ROCK2): 101 to 1000 nM

Q: What does the source list for `O=C(Cc1ccc(-c2n[nH]c(=O)c3ccccc23)c(F)c1)N1CCc2ccccc21` [Example 261, 4-(2-Fluoro-4-(2-(indolin-1-yl)-2-oxoethyl)phenyl)phthalazin-1(2H)-one]?
A: IC50 (ROCK1): 0.1 to 100 nM; IC50 (ROCK2): 0.1 to 100 nM

Q: What does the source list for `O=C(Nc1ccc(-c2n[nH]c(=O)c3ccccc23)cc1)N1CCc2ccccc21` [Example 76, N-(4-(4-Oxo-3,4-dihydrophthalazin-1-yl)phenyl)indoline-1-carboxamide]?
A: IC50 (ROCK1): 0.1 to 100 nM; IC50 (ROCK2): 0.1 to 100 nM

Q: `Cn1c(C(=O)Nc2ccc(-c3n[nH]c(=O)c4ccccc34)cc2)cc2ccccc21` [Example 90, 1-methyl-N-[4-(4-oxo-3,4-dihydrophthalazin-1-yl)phenyl]-1H-indole-2-carboxamide] was tested. Which IC50 (ROCK1) did it give?
A: The IC50 was 101 to 1000 nM.

Q: And the IC50 (ROCK2)?
A: The IC50 was 0.1 to 100 nM.

Q: `CC1(C)CCc2[nH]cc(C(=O)Nc3ccc(-c4n[nH]c(=O)c5ccccc45)cc3)c2C1=O` [Example 97, 5,5-dimethyl-4-oxo-N-[4-(4-oxo-3,4-dihydrophthalazin-1-yl)phenyl]-4,5,6,7-tetrahydro-1H-indole-3-carboxamide] was tested. Which IC50 (ROCK1) did it give?
A: Its IC50 is 101 to 1000 nM.

Q: What about the IC50 (ROCK2) of the same compound?
A: Its IC50 is 101 to 1000 nM.

Q: What does the source list for `CCn1cncc1C(=O)Nc1ccc(-c2n[nH]c(=O)c3ccccc23)cc1` [Example 233, 1-ethyl-N-[4-(4-oxo-3,4-dihydrophthalazin-1-yl)phenyl]-1H-imidazole-5-carboxamide]?
A: IC50 (ROCK1): 101 to 1000 nM; IC50 (ROCK2): 101 to 1000 nM

Q: What does the source list for `COc1ccc2c(=O)[nH]cc(-c3ccc(OC(=O)N4Cc5ccccc5C4)cc3)c2c1` [Example 269, 4-(6-Methoxy-1-oxo-1,2-dihydroisoquinolin-4-yl)phenyl isoindoline-2-carboxylate]?
A: IC50 (ROCK1): 1000 to 50000 nM; IC50 (ROCK2): 0.1 to 100 nM

Q: With `Cc1c(C(=O)Nc2ccc(-c3n[nH]c(=O)c4ccccc34)cc2)nnn1-c1cccc(C(F)(F)F)c1` [Example 232, 5-methyl-N-[4-(4-oxo-3,4-dihydrophthalazin-1-yl)phenyl]-1-[3-(trifluoromethyl)phenyl]-1H-1,2,3-triazole-4-carboxamide] as the compound, how does the IC50 (ROCK1) read?
A: The IC50 was 101 to 1000 nM.

Q: And the IC50 (ROCK2)?
A: Its IC50 is 0.1 to 100 nM.

Q: Which IC50 (ROCK1) does the source give for `COc1cc2c(-c3ccc(CC(=O)N4Cc5ccccc5C4)cc3)c[nH]c(=O)c2cc1OC` [Example 255, 4-(4-(2-(Isoindolin-2-yl)-2-oxoethyl)phenyl)-6,7-dimethoxyisoquinolin-1(2H)-one] here?
A: Its IC50 is 1000 to 50000 nM.

Q: What about the IC50 (ROCK2) of the same compound?
A: The IC50 was 101 to 1000 nM.

Q: What does the source list for `COc1ccc(-n2nnc(C)c2C(=O)Nc2ccc(-c3n[nH]c(=O)c4ccccc34)cc2)cc1` [Example 402, 1-(4-Methoxyphenyl)-4-methyl-N-(4-(4-oxo-3,4-dihydrophthalazin-1-yl)phenyl)-1H-1,2,3-triazole-5-carboxamide]?
A: IC50 (ROCK1): 101 to 1000 nM; IC50 (ROCK2): 0.1 to 100 nM

Q: For `CCCc1c(C(=O)Nc2ccc(-c3n[nH]c(=O)c4ccccc34)cc2)nnn1-c1ccccc1` [Example 231, N-[4-(4-oxo-3,4-dihydrophthalazin-1-yl)phenyl]-1-phenyl-5-propyl-1H-1,2,3-triazole-4-carboxamide], which IC50 (ROCK1) is on record?
A: Its IC50 is 101 to 1000 nM.

Q: What about the IC50 (ROCK2) of the same compound?
A: The IC50 was 0.1 to 100 nM.

Q: How did the IC50 (ROCK1) turn out when `Cc1cccc(-n2cnc(C(=O)Nc3ccc(-c4n[nH]c(=O)c5ccccc45)cc3)c2)c1` [Example 195, 1-(3-methylphenyl)-N-[4-(4-oxo-3,4-dihydrophthalazin-1-yl)phenyl]-1H-imidazole-4-carboxamide] was run?
A: The IC50 was 0.1 to 100 nM.

Q: And the IC50 (ROCK2)?
A: The IC50 was 0.1 to 100 nM.

Q: `COc1cccc2cc(C(=O)Nc3ccc(-c4n[nH]c(=O)c5ccccc45)c(C)c3)[nH]c12` [Example 309, 7-methoxy-N-[3-methyl-4-(4-oxo-3,4-dihydrophthalazin-1-yl)phenyl]-1H-indole-2-carboxamide] was tested. Which IC50 (ROCK1) did it give?
A: The IC50 was 0.1 to 100 nM.

Q: What about the IC50 (ROCK2) of the same compound?
A: Its IC50 is 0.1 to 100 nM.

Q: Which results are given for `O=C(Nc1ccc(-c2n[nH]c(=O)c3ccccc23)cc1)c1ccc(N2CCCCC2)cc1` [Example 61]?
A: IC50 (ROCK1): 0.1 to 100 nM; IC50 (ROCK2): 0.1 to 100 nM

Q: Which results are given for `CC(C)Oc1ccc2c(c1)CCN2C(=O)Cc1ccc(-c2n[nH]c(=O)c3ccccc23)cc1` [Example 273, 4-(4-{2-oxo-2-[5-(propan-2-yloxy)-2,3-dihydro-1H-indol-1-yl]ethyl}phenyl)-1,2-dihydrophthalazin-1-one]?
A: IC50 (ROCK1): 101 to 1000 nM; IC50 (ROCK2): 0.1 to 100 nM

Q: Which results are given for `CCc1nc2ncccn2c1C(=O)Nc1ccc(-c2n[nH]c(=O)c3ccccc23)cc1` [Example 140, 2-ethyl-N-[4-(4-oxo-3,4-dihydrophthalazin-1-yl)phenyl]imidazo[1,2-a]pyrimidine-3-carboxamide]?
A: IC50 (ROCK1): 0.1 to 100 nM; IC50 (ROCK2): 0.1 to 100 nM

Q: What does the source list for `COc1ccccc1-n1cc(C(=O)Nc2ccc(-c3n[nH]c(=O)c4ccccc34)cc2)cn1` [Example 197, 1-(2-methoxyphenyl)-N-[4-(4-oxo-3,4-dihydrophthalazin-1-yl)phenyl]-1H-pyrazole-4-carboxamide]?
A: IC50 (ROCK1): 0.1 to 100 nM; IC50 (ROCK2): 0.1 to 100 nM

Q: How did the IC50 (ROCK1) turn out when `O=C(Cc1ccc(-c2n[nH]c(=O)c3ccccc23)cc1)N1CCc2ccc(OCCN3CCCC3)cc21` [Example 286, 4-[4-(2-oxo-2-{6-[2-(pyrrolidin-1-yl)ethoxy]-2,3-dihydro-1H-indol-1-yl}ethyl)phenyl]-1,2-dihydrophthalazin-1-one] was run?
A: The IC50 was 101 to 1000 nM.

Q: And the IC50 (ROCK2)?
A: The IC50 was 0.1 to 100 nM.

Q: Which results are given for `Cc1noc(-c2ccc(C(C)(C)O)cc2)c1C(=O)Nc1ccc(-c2n[nH]c(=O)c3ccccc23)cc1` [Example 223, 5-[4-(2-hydroxypropan-2-yl)phenyl]-3-methyl-N-[4-(4-oxo-3,4-dihydrophthalazin-1-yl)phenyl]-1,2-oxazole-4-carboxamide]?
A: IC50 (ROCK1): 0.1 to 100 nM; IC50 (ROCK2): 0.1 to 100 nM

Q: For `O=C(Nc1ccc(-c2n[nH]c(=O)c3ccccc23)cc1)c1nc2c(s1)CCCC2` [Example 53, N-[4-(4-oxo-3,4-dihydrophthalazin-1-yl)phenyl]-4,5,6,7-tetrahydro-1,3-benzothiazole-2-carboxamide], which IC50 (ROCK1) is on record?
A: Its IC50 is 0.1 to 100 nM.

Q: What about the IC50 (ROCK2) of the same compound?
A: Its IC50 is 0.1 to 100 nM.

Q: `CC(C)(O)Cn1nc(C(=O)Nc2ccc(-c3n[nH]c(=O)c4ccccc34)cc2)c2cc(F)ccc21` [Example 167, 5-fluoro-1-(2-hydroxy-2-methylpropyl)-N-[4-(4-oxo-3,4-dihydrophthalazin-1-yl)phenyl]-1H-indazole-3-carboxamide] was tested. Which IC50 (ROCK1) did it give?
A: The IC50 was 0.1 to 100 nM.

Q: And the IC50 (ROCK2)?
A: The IC50 was 0.1 to 100 nM.
